Data from patent publication US11419955B2, “Multimodal silica-based nanoparticles” (Sloan-Kettering Institute for Cancer Research, priority 2009, dated 2022).

Legend:
HUVEC cells = experiment: Migration assay, HUVEC cells; format: cell-based, human; conditions: 400 nM particles, 24 hour, before and after addition of inhibitor
Description: M21 cells: M21 cells were seeded (6×10^4 cells/well) using a migration kit (Oris™ Collagen I coated plate, […] TEC). Twenty-four hours after seeding the cells, stoppers in the plate were removed. Fresh culture media (100 μl) supplemented with 0.2% FBS was introduced and cRGDY-PEG-C-dots were added at several concentrations: 25, 100 and 400 nM. Every 24 hours thereafter, media was replaced, along with new particles, over a 72 hr time interval. Prior to incubating the plate at 37° C. overnight, time zero images were captured by the Axiovert 200M microscope (Carl Zeiss) using a 5× (0.15 NA) objective and using a scan slide module in the Metamorph software (molecular devices, PA). Serial microscopy was then performed and images captured every 24 hrs for a total of 96 hours post-incubation. The data were analyzed by using ImageJ software. […]
Phase contrast images captured for migration studies were analyzed using ImageJ 1.45s (National Institutes of Health, rsbweb.nih.gov/ij/) in order to quantify the extent of cell migration (i.e., area closure) for M21 cells and HUVECs. […] The enclosed area for each image was measured (pixels) and used to calculate percent closure relative to time zero (following particle addition and media replacement) as follows: difference in area at a given time point (24, 48, 72 or 96 hr) and at time zero divided by the same area at time zero multiplied by 100. […]

FAK pathway = experiment: Western blot of FAK pathway signaling in M21 cells; format: cell-based, human; conditions: M21 cells exposed to 100 nM cRGDY-PEG-C dots
Description: To determine whether […] integrin-binding cRGDY-PEG-C-dots modulates the activity of these pathways, we treated serum-deprived (0.2% FCS) M21 cells with 100 nM of cRGDY-PEG-C-dots for 2 hrs at 37° C.; serum-deprived cells treated with 0.2% FCS alone served as controls. […] These findings, depicted graphically as normalized intensity ratios, have been expressed relative to their respective total protein levels, and normalized to corresponding values measured under control conditions (FIG. 40C).
M21 cells (1×10^6 cells/six wells plate) were grown in six wells coated with collagen (10 mg/ml), and made quiescent by growing under serum-deprived conditions. The medium was then changed to 0.2% FCS, and different concentrations (25-400 nM) of cRGDY-PEG-C-dots were added (37° C., 0.5-8 hours). […] Protein concentrations were determined by the bicinchoninic acid assay (BCA, Thermo Scientific, Rockford, Ill.). […]
In order to quantify the differences in the size and intensity between Western blot bands, we performed densitometry of phosphorylated and total protein intermediates using Photoshop CS2 (Adobe, San Jose, Calif.). […]

[1] = test system: melanoma nodal metastases; parameters: species or system Sinclair miniature swine; conditions: in vivo
Description: Spontaneous melanoma Sinclair miniature swine (10-12 kg, Sinclair Research Center, MO) were injected intravenously with 5 mCi ^18F-fluoro-deoxyglucose (^18F-FDG) for whole-body screening of nodal and/or organ metastases. Miniswine underwent 1-hr dynamic ^18F-FDG PET whole body PET scan using a clinical PET scanner 40 minutes after injection to screen for metastatic disease, followed by CT scan acquisition for anatomic localization. […]
Miniswine were taken to the operating room for identification of nodes. Optical fluorescence imaging was performed using large field-of-view near infrared fluorescence camera system, smaller field-of-view modified endoscope, and a modified stereomacroscope for obtaining higher resolution fluorescence images within the exposed surgical bed. […]
The primary melanoma skin lesion was excised, and an incision made to allow access to the sentinel node(s). […] Specimens were sent for histological assessment for metastases and optical confocal microscopy to confirm the presence of both malignancy and nanoparticle fluorescence.
Following harvest of the sentinel nodes, the entire lymph node basin was excised and further evaluated using histological methods (with immunohistochemical markers for melanoma as needed), fluorescence microscopy, and the hand-held PET probe for correlative purposes. […]

[2] = Montet et al. 2006; cited from earlier work

## CS(=O)(=O)c1cccc(CNc2nc(Nc3ccc4c(c3)CCC(=O)N4)ncc2C(F)(F)F)c1 [PF-573228]
HUVEC cells
  Percentage change in mean areas of closure relative to controls: +3%
FAK pathway; 250, 500 nM inhibitor
  Inhibition of MEK or Erk phosphorylation: observed only at the higher inhibitor concentration
FAK pathway; two inhibitor concentrations (250, 500 nM)
  phosphorylation of FAK on Tyr397 and Src: inhibition of the phosphorylation of FAK on Tyr^397 and Src

## ^18F-fluorodeoxyglucose [^18F-FDG]
[1]
  discrimination of metastatic disease from inflammation: failed to detect metastatic disease, while identifying inflammatory and other metabolically active sites

## cRGD
[2]
  published blood T1/2 / blood residence half-time: about 13 minutes
